# Results: US10647702B2, “Aryl-substituted imidazoles” (St. Jude Children's Research Hospital, priority 2010, dated 2020)
# Experiments:
# [1] = Liver microsomal stability, mouse; assay type: in vitro ADME; conditions: for mouse liver microsome t(½): female CD-1 mouse liver microsomes, 37° C.; for CLint scaled at 19.8 µM: female, CD-1, mouse, liver microsomes, pH 7.4, intrinsic clearance calculated from t1/2, read-out: mouse liver microsome CLint′
# Experimental: (§1) 1.582 mL of mouse liver microsome (20 mg/mL, female CD-1 mice, pooled, Fisher Scientific, # NC9567486) was mixed with 0.127 ml of 0.5M EDTA solution and 48.3 ml potassium phosphate buffer (0.1M, pH 7.4, 37° C.) to make 50 ml of mouse liver microsome solution. Human liver microsomal solution was made with human liver microsome (50 pooled mix gender, Fisher Scientific #50-722-516) the same way. 1 volume of 10 mM DMSO compound stock was mixed with 4 volume of acetonitrile to make 2 mM diluted compound stock in DMSO and acetonitrile. 37.83 μL, diluted compound stock was added to 3 mL liver microsomal solution and vortexed to make microsomal solution with compound. 1 ml of liver microsomal solution with compound is added to each well of a master storage plate (pION Inc., MA, #110323). All compounds are in triplicates. Mouse and human liver microsomes were tested side by side on the same plate. 175 μL of each well was dispensed from the master plate into 5 storage plates. For 0 hour time point, 450 pit pre-cooled (4° C.) internal standard (10 μM warfarin in methanol) was added to the first plate before the reaction starts. 5.25 ml of microsome assay solution A (Fisher Scientific, # NC9255727) was combined with 1.05 ml of solution B (Fisher Scientific, # NC9016235) in 14.7 ml of potassium phosphate buffer (0.1 M, pH 7.4). 45 μL of this A+B solution was added to each well of all the 96-well storage plates and mixed with pipette briefly. The plates are sealed, and all plates except 0-hr plate were incubated at 37° C., shaken at a speed of 60 rpm. 0.5 hr, 1 hr, 2 hr and 4 hr time points were taken. At each time point, 450 μL pre-cooled internal standard was added to the plate to quench the reaction. The quenched plate was then centrifuged (model 5810R, Eppendorf, Westbury, N.Y.) at 4000 rpm for 15 minutes. 150 μL supernatant was transferred to a 96-well plate and analyzed by UPLC-MS (Waters Inc., Milford, Mass.). The compounds and internal standard were detected by SIR. The log peak area ratio (compound peak area/internal standard peak area) was plotted vs time (hr) and the slope was determined to calculate the elimination rate constant [k=(−2.303)*slope]. The half life (hr) was calculated as t (1/2)=0.693/k. Intrinsic clearance was calculated as CLint′=(0.693/(t1/2))*(1/microsomal concentration in the reaction solution)*(45 mg microsome/gram liver)*(gram liver/kg b.w.), where microsomal concentration in the reaction solution is 0.5 mg/ml, and gram liver/kg b.w. of CD-1 female mice and human are 52 and 20, respectively.
# [2] = Liver microsomal stability, human; assay type: in vitro ADME; conditions: for CLint scaled at 19.8 µM: both sexes, human, liver microsomes, pH 7.4, intrinsic clearance calculated from t1/2, read-out: Human liver microsome CLint′; for human liver microsome t(½): pooled human liver microsomes, 37° C.
# Experimental: as §1
# [3] = Plasma stability, mouse plasma; assay type: in vitro ADME; conditions: 37° C., up to 48 hr
# Experimental: (§2) Compound stocks were 10 mM in DMSO. The internal standard was 10 μM warfarin in methanol. 1.9 ml mouse plasma (Fisher Scientific, catalog #: NC9050370) or pooled human plasma (Innovative Research Inc., catalog # IPLA-1) was added to the columns of 1, 4, 7 and 10 of a 2 ml 96-well deep well plate (pION Inc., MA, #110023); this was the master plate. 1.9 μl compound stock was added to each well with plasmas and mixed well. Using a multi-channel pipette, 600 μl from the columns of 1, 4, 7 and 10 were taken and added into the rest of the columns (fluids in column 1 added to columns 2 and 3, column 4 into 5 and 6, and so on). From the master plate, 65 μl were taken from each well and added into 8 storage plates (pION Inc., MA, #110323), each for a time point. The storage plates was then incubated at 37° C. and shaken at 60 rpm. Samples were taken at 0 min, 30 min, 1 hr, 2 hr, 4 hr, 8 hr, 24 hr and 48 hr. At each time point, 195 μl internal standard was added to quench the reaction. The plates were then centrifuged at 4000 rpm for 15 min and supernatant was analyzed by UPLC-MS. The compound was detected by SIR and quantitation was based on peak area ratio of test compound vs. the internal standard.
# [4] = Plasma stability, pooled human plasma; assay type: in vitro ADME; conditions: 37° C., up to 48 hr
# Experimental: as §2
# PBS stability = assay type: physicochemical; conditions: PBS pH 7.4, 37° C., up to 48 hr
# Experimental: as §2, with “ml PBS (Mediatech Inc., Manassas, Va.,” for “ml mouse plasma (Fisher Scientific,”, “catalog #21-040-CM)” for “catalog #: NC9050370) or pooled human plasma (Innovative Research Inc., catalog # IPLA-1)”, “with […]” for “with plasmas”, “65 pil” for “65 μl”
mouse liver microsome t(½) [1],CLint scaled at 19.8 µM [1],CLint scaled at 19.8 µM [2],human liver microsome t(½) [2],mPlasma stability t(½) [3],hPlasma stability t(½) [4],PBS pH 7.4 stability t(½) (PBS stability),SMILES
2.17 h,24.9 mL/min/kg,12.1 mL/min/kg,1.72 h,>48 h,>48 h,>48 hr,COc1ccc(C2=N[C@@H](c3cccc(Cl)c3)[C@@H](c3ccc(Cl)cc3)N2C(=O)N2CCNC(=O)C2)c(OC(C)C)c1 [SJ000558295-1]
0.73 h,73.9 mL/min/kg,14.2 mL/min/kg,1.46 h,>48 h,>48 h,>48 hr,COc1ccc(C2=NC(c3cccc(C)c3)C(c3ccc(Cl)cc3)N2C(=O)N2CCNC(=O)C2)c(OC(C)C)c1 (centres unmarked) [SJ000558304-1]
